Test results published in article PMC10508830 (Antiviral research, 2023).

Target: NA of A/Alabama/03/2020 A(H1N1)pdm09 (H275Y) (Influenza A virus, UniProt A0A0X9QTS2, H275Y)
Assay type: biochemical
Conditions: for IC50: read-out: Mean IC50 ± SD

Substance	IC50 fold-change	IC50
peramivir	15.25 ± 2.11 (254) fold	15.2 nM
oseltamivir carboxylate		230 nM
